# Test results taken from PubChem BioAssay AID330 (DTP/NCI, 2004).
# Values joined by “and” are separate entries in the source; they are usually repeats but may differ in a detail not shown here. Identical values can stand only once. Toxic doses and inconclusive results are not listed.
# System: P388 leukemia ip, CD2F1 mice, survival T/C
# Assay: NCI In Vivo Anticancer Drug Screen. Data for tumor model P388 Leukemia (intraperitoneal) in CD2F1 (CDF1) mice
# Conditions: endpoint: median survival time, higher = longer survival
# Procedure, shortened: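 Mice carrying the transplanted tumor received test compound or vehicle. Survival was recorded in each group, and the value is the treated-group measurement divided by that of the vehicle-treated control group.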
# [1] = dose: 50.0 mg/kg/injection, schedule: Q01DX005 (ip), vehicle: Klucel (hydroxypropylcellulose) (HPC)
# [2] = dose: 100.0 mg/kg/injection, schedule: Q01DX001 (ip), vehicle: saline with Tween-80
# [3] = dose: 60.0 mg/kg/injection, schedule: Q01DX005 (ip), vehicle: saline with Tween-80
# [4] = dose: 120.0 mg/kg/injection, schedule: Q01DX005 (ip), vehicle: saline with Tween-80
# [5] = dose: 240.0 mg/kg/injection, schedule: Q01DX005 (ip), vehicle: saline with Tween-80
# [6] = dose: 50.0 mg/kg/injection, schedule: Q01DX009 (ip), vehicle: saline with Tween-80
# [7] = dose: 100.0 mg/kg/injection, schedule: Q01DX009 (ip), vehicle: saline with Tween-80
# [8] = dose: 50.0 mg/kg/injection, schedule: Q01DX009 (ip), vehicle: saline
# [9] = dose: 100.0 mg/kg/injection, schedule: Q01DX009 (ip), vehicle: saline
# [10] = dose: 200.0 mg/kg/injection, schedule: Q01DX009 (ip), vehicle: saline
# [11] = dose: 50.0 mg/kg/injection, schedule: Q01DX009 (ip), vehicle: Klucel (hydroxypropylcellulose) (HPC)
# [12] = dose: 100.0 mg/kg/injection, schedule: Q01DX009 (ip), vehicle: Klucel (hydroxypropylcellulose) (HPC)
# [13] = dose: 200.0 mg/kg/injection, schedule: Q01DX009 (ip), vehicle: Klucel (hydroxypropylcellulose) (HPC)
# [14] = dose: 50.0 mg/kg/injection, schedule: Q01DX005 (ip), vehicle: saline with Tween-80
# [15] = dose: 100.0 mg/kg/injection, schedule: Q01DX005 (ip), vehicle: saline with Tween-80
# [16] = dose: 200.0 mg/kg/injection, schedule: Q01DX005 (ip), vehicle: saline with Tween-80
smiles,measurement,setting,value
CNC(=O)c1ccccc1C(=O)c1ccccc1OC,T/C,[1],104 % of control
same,T/C,"dose: 100.0 mg/kg/injection, schedule: Q01DX005 (ip), vehicle: Klucel (hydroxypropylcellulose) (HPC)",99 % of control
same,T/C,"dose: 200.0 mg/kg/injection, schedule: Q01DX005 (ip), vehicle: Klucel (hydroxypropylcellulose) (HPC)",97 % of control
O=P(c1ccccc1)(c1ccccc1)c1ccccc1.O=P(c1ccccc1)(c1ccccc1)c1ccccc1.O=P(c1ccccc1)(c1ccccc1)c1ccccc1.O=P(c1ccccc1)(c1ccccc1)c1ccccc1.[O-][Cl+3]([O-])([O-])O.[Zn+2],T/C,"dose: 50.0 mg/kg/injection, schedule: Q01DX001 (ip), vehicle: saline with Tween-80",104 % of control
same,T/C,[2],103 % of control and 90 % of control
CCCCc1c(C#N)c(=O)n2c(N)c(C(=O)OCC)cnc2c1SC,T/C,"dose: 3.75 mg/kg/injection, schedule: Q01DX005 (ip), vehicle: saline with Tween-80",104 % of control and 108 % of control
same,T/C,"dose: 7.5 mg/kg/injection, schedule: Q01DX005 (ip), vehicle: saline with Tween-80",117 % of control and 120 % of control
same,T/C,"dose: 15.0 mg/kg/injection, schedule: Q01DX005 (ip), vehicle: saline with Tween-80",120 % of control
same,T/C,[3],98 % of control
same,T/C,[4],92 % of control
Cc1[nH]c2ccccc2c1-c1cc(-c2cc(-c3c(C)[nH]c4ccccc34)on2)no1,T/C,"dose: 60.0 mg/kg/injection, schedule: Q01DX005 (ip), vehicle: Klucel + Tween-80",97 % of control
same,T/C,"dose: 120.0 mg/kg/injection, schedule: Q01DX005 (ip), vehicle: Klucel + Tween-80",100 % of control
same,T/C,"dose: 240.0 mg/kg/injection, schedule: Q01DX005 (ip), vehicle: Klucel + Tween-80",103 % of control
Clc1ccc(CSSC(Cl)(Cl)Cl)cc1,T/C,"dose: 50.0 mg/kg/injection, schedule: Q01DX005 (ip), vehicle: acetone",102 % of control
same,T/C,"dose: 100.0 mg/kg/injection, schedule: Q01DX005 (ip), vehicle: acetone",105 % of control
same,T/C,"dose: 200.0 mg/kg/injection, schedule: Q01DX005 (ip), vehicle: acetone",107 % of control
CC(=O)CCC1C(=O)N(C)C(=O)c2ccccc21 (centres undefined),T/C,[3],98 % of control
same,T/C,[4],99 % of control
same,T/C,[5],91 % of control
COc1ccccc1N=C1SCC(=O)N1Cc1ccco1,T/C,[6],95 % of control
same,T/C,[7],95 % of control
same,T/C,"dose: 200.0 mg/kg/injection, schedule: Q01DX009 (ip), vehicle: saline with Tween-80",92 % of control
NCCc1cc2ccccc2c2ccccc12,T/C,"dose: 12.5 mg/kg/injection, schedule: Q01DX005 (ip), vehicle: Klucel (hydroxypropylcellulose) (HPC)",99 % of control
same,T/C,"dose: 25.0 mg/kg/injection, schedule: Q01DX005 (ip), vehicle: Klucel (hydroxypropylcellulose) (HPC)",99 % of control
same,T/C,[1],99 % of control and 95 % of control
COC(=O)C1C2CCCN2OC1(C)CO (centres undefined),T/C,"dose: 7.5 mg/kg/injection, schedule: Q01DX005 (ip), vehicle: saline",100 % of control
same,T/C,"dose: 15.0 mg/kg/injection, schedule: Q01DX005 (ip), vehicle: saline",106 % of control
same,T/C,"dose: 60.0 mg/kg/injection, schedule: Q01DX005 (ip), vehicle: saline",203 % of control
same,T/C,"dose: 120.0 mg/kg/injection, schedule: Q01DX005 (ip), vehicle: saline",96 % of control
same,T/C,"dose: 240.0 mg/kg/injection, schedule: Q01DX005 (ip), vehicle: saline",99 % of control
NC(CS)C(=O)O.[Cl-].[Cl-].[Cl-].[Cl-].[Pt+2] (centres undefined),T/C,"dose: 12.5 mg/kg/injection, schedule: Q01DX009 (ip), vehicle: saline",104 % of control
same,T/C,"dose: 25.0 mg/kg/injection, schedule: Q01DX009 (ip), vehicle: saline",95 % of control
same,T/C,[8],95 % of control
same,T/C,[9],99 % of control
same,T/C,[10],95 % of control
O=C1C2C3CC(c4ccccc43)C2N1S(=O)(=O)Cl (centres undefined),T/C,[3],107 % of control
same,T/C,[4],106 % of control
same,T/C,[5],114 % of control
CC(C)S(=O)(=O)/C(Cl)=C(/Cl)C(Cl)=C(Cl)Cl,T/C,"dose: 12.5 mg/kg/injection, schedule: Q01DX009 (ip), vehicle: saline with Tween-80",100 % of control
same,T/C,"dose: 25.0 mg/kg/injection, schedule: Q01DX009 (ip), vehicle: saline with Tween-80",109 % of control
same,T/C,[6],95 % of control
Clc1ccc(C2N(Cc3ccccc3)CCC3CCCCN32)cc1Cl (centres undefined),T/C,[6],87 % of control
same,T/C,[7],91 % of control
COCCO[Si](OCCOC)(OCCOC)c1ccccc1,T/C,[11],101 % of control
same,T/C,[12],107 % of control
same,T/C,[13],117 % of control
COC(=O)c1c(C(=O)Nc2ccc(Cl)cc2)c(C)n(NC(N)=O)c1C,T/C,[14],95 % of control
same,T/C,[15],95 % of control
same,T/C,[16],101 % of control
C=CCN1C(=O)c2cc(Cl)c(Cl)cc2C1=O,T/C,[14],102 % of control
same,T/C,[15],87 % of control
same,T/C,[16],94 % of control
CN1CCN(Cc2ccccc2)C(C#N)C1 (centres undefined),T/C,"dose: 3.13 mg/kg/injection, schedule: Q01DX005 (ip), vehicle: water",100 % of control
same,T/C,"dose: 6.25 mg/kg/injection, schedule: Q01DX005 (ip), vehicle: water",95 % of control
same,T/C,"dose: 12.5 mg/kg/injection, schedule: Q01DX005 (ip), vehicle: water",93 % of control
same,T/C,"dose: 25.0 mg/kg/injection, schedule: Q01DX005 (ip), vehicle: water",100 % of control
same,T/C,"dose: 50.0 mg/kg/injection, schedule: Q01DX005 (ip), vehicle: water",105 % of control and 112 % of control
same,T/C,"dose: 100.0 mg/kg/injection, schedule: Q01DX005 (ip), vehicle: water",105 % of control
O=C(O)c1ccc(NC(=S)NNC(=O)c2ccncc2)cc1,T/C,"dose: 100.0 mg/kg/injection, schedule: Q04DX002 (ip), vehicle: Klucel (hydroxypropylcellulose) (HPC)",99 % of control
same,T/C,"dose: 200.0 mg/kg/injection, schedule: Q04DX002 (ip), vehicle: Klucel (hydroxypropylcellulose) (HPC)",102 % of control
same,T/C,"dose: 400.0 mg/kg/injection, schedule: Q04DX002 (ip), vehicle: Klucel (hydroxypropylcellulose) (HPC)",100 % of control
C/C(=C/c1ccccc1)C(=O)C1C(c2ccccc2)CC(O)C(C)C1c1ccccc1 (centres undefined),T/C,"dose: 100.0 mg/kg/injection, schedule: Q04DX003 (ip), vehicle: Klucel (hydroxypropylcellulose) (HPC)",93 % of control
same,T/C,"dose: 200.0 mg/kg/injection, schedule: Q04DX003 (ip), vehicle: Klucel (hydroxypropylcellulose) (HPC)",88 % of control
COC(=O)C1=CN(C(C)=O)C=C(C(=O)OC)C1c1ccccc1,T/C,[14],102 % of control
same,T/C,[15],93 % of control
same,T/C,[16],92 % of control
CC(=O)C1C(=O)C(=O)N(c2ccc(F)cc2)C1=O (centres undefined),T/C,[2],103 % of control
same,T/C,"dose: 200.0 mg/kg/injection, schedule: Q01DX001 (ip), vehicle: saline with Tween-80",99 % of control
same,T/C,"dose: 400.0 mg/kg/injection, schedule: Q01DX001 (ip), vehicle: saline with Tween-80",98 % of control
Cc1ccc(NC(=O)Oc2ccc(Cl)cc2Cl)c([N+](=O)[O-])c1,T/C,"dose: 50.0 mg/kg/injection, schedule: Q01DX009 (ip), vehicle: gum acacia",109 % of control
same,T/C,"dose: 100.0 mg/kg/injection, schedule: Q01DX009 (ip), vehicle: gum acacia",109 % of control
same,T/C,"dose: 200.0 mg/kg/injection, schedule: Q01DX009 (ip), vehicle: gum acacia",109 % of control
CCCCCC1OC1CC1OC1CCCCCCCC(=O)O (centres undefined),T/C,[8],99 % of control
same,T/C,[9],90 % of control
same,T/C,[10],86 % of control
S=C1CCNCC1,T/C,"dose: 3.13 mg/kg/injection, schedule: Q04DX003 (ip), vehicle: saline",100 % of control
same,T/C,"dose: 6.25 mg/kg/injection, schedule: Q04DX003 (ip), vehicle: saline",104 % of control
same,T/C,"dose: 12.5 mg/kg/injection, schedule: Q04DX003 (ip), vehicle: saline",100 % of control
same,T/C,"dose: 25.0 mg/kg/injection, schedule: Q04DX003 (ip), vehicle: saline",100 % of control
same,T/C,"dose: 50.0 mg/kg/injection, schedule: Q04DX003 (ip), vehicle: saline",90 % of control
COc1cc(/C=C/C(NC(C)=O)c2cccc(O)c(=O)c2)cc(OC)c1OC (centres undefined),T/C,"dose: 12.5 mg/kg/injection, schedule: Q01DX009 (ip), vehicle: Klucel (hydroxypropylcellulose) (HPC)",90 % of control
same,T/C,"dose: 25.0 mg/kg/injection, schedule: Q01DX009 (ip), vehicle: Klucel (hydroxypropylcellulose) (HPC)",93 % of control
same,T/C,[11],98 % of control
same,T/C,[12],107 % of control
same,T/C,[13],116 % of control
Clc1ccc(SCc2csc(-c3ccc(Cl)cc3)n2)cc1,T/C,[8],104 % of control
same,T/C,[9],111 % of control
same,T/C,[10],104 % of control
O=Cc1ccc([N+](=O)[O-])s1,T/C,[8],120 % of control
